Measurements taken from ChEMBL document CHEMBL6109163, “6-Aryl Isoindolin-1-ones: Novel mGluR2 Negative Allosteric Modulators” (ACS Med Chem Lett, 2025).

How the values were obtained:
[1] = target: Metabotropic glutamate receptor 3 (Rattus norvegicus, UniProt P31422); test: Negative allosteric modulator activity at rat mGluR3 receptor by TI flux assay-based fluorescence analysis
[2] = target: Metabotropic glutamate receptor 2 (Rattus norvegicus, UniProt P31421); test: Negative allosteric modulator activity at glutamate-stimulated rat mGluR2 receptor expressed in HEK293 cells assessed as inhibition of thallium flux preincubated for 2 mins 20 secs followed by glutamate addition and measured for 2.5 mins by fluorescence based analysis; format: cell-based
Metabotropic glutamate receptor 2, sequence (P31421 whole entry): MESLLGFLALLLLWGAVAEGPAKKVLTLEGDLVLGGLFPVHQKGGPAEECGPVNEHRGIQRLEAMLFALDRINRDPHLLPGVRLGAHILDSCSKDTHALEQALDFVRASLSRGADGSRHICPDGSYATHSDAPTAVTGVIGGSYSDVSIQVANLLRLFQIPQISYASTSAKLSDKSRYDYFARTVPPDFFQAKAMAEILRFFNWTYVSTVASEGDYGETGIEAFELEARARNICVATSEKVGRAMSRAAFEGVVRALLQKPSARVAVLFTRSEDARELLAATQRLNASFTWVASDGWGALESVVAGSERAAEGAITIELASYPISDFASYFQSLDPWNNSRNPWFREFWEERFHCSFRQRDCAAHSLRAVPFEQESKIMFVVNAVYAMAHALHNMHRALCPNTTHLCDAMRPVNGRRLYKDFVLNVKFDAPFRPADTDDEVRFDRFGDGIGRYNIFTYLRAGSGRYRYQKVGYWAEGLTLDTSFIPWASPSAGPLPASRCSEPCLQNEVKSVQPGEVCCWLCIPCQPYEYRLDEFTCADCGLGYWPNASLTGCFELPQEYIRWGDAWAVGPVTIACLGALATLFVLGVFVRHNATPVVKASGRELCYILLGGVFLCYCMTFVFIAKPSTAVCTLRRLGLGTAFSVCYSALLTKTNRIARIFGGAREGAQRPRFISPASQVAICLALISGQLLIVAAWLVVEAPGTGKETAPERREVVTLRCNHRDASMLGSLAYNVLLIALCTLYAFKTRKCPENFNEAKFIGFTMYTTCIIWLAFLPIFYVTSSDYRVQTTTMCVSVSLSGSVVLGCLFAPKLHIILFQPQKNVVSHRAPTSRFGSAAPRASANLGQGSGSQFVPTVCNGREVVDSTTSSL

Metabotropic glutamate receptor 3, sequence (P31422 whole entry): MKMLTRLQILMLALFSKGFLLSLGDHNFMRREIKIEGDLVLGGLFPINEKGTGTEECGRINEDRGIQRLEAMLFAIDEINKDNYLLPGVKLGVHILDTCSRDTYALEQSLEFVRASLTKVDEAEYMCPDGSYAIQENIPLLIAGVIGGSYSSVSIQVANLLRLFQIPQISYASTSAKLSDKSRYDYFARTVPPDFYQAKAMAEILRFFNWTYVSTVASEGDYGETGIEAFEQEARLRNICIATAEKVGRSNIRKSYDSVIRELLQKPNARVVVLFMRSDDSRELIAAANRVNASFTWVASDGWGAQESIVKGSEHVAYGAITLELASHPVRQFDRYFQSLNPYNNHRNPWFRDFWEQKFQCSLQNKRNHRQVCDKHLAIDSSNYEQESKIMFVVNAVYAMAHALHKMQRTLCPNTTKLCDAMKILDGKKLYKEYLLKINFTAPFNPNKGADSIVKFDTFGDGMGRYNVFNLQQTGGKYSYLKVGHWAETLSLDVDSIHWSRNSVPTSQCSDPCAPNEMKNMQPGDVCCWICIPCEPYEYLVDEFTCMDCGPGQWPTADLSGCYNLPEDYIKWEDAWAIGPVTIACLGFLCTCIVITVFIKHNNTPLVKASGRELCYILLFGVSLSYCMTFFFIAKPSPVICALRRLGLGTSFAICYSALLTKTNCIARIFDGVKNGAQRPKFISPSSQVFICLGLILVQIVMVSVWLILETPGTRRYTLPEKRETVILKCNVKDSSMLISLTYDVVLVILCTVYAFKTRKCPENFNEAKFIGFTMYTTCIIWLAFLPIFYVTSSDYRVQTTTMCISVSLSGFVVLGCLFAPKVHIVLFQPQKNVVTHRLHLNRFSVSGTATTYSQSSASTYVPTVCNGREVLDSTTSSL

SMILES | IC50 [1] [µM] | IC50 [2] [µM]
Cc1ccc(-c2cc3c(cc2-c2ccc(F)cc2)C(=O)NC3)cn1 | > 10 | 0.659
Cc1ccc(-c2cc3c(cc2-c2ccc(F)cc2)C(=O)NC3)nc1 | > 10 | 
O=C1NCc2cc(C3CCOCC3)c(-c3ccc(F)cc3)cc21 | > 10 | 

More lines, now with the values ahead:

IC50 [1] [µM] | IC50 [2] [µM] | SMILES
> 10 |  | N#Cc1cccc(-c2cc3c(cc2-c2ccc(F)cc2F)C(=O)NC3)c1F
> 10 |  | O=C1NCc2cc(-c3cnc4[nH]ccc4c3)c(-c3ccc(F)cc3F)cc21
> 10 | 0.693 | O=C1NCc2cc(-c3cccnc3C3CC3)c(-c3ccc(F)cc3F)cc21
